From patent publication US8685992B2, “Histone deacetylase inhibitors based simultaneously on trisubstituted 1H-pyrroles and aromatic and heteroaromatic spacers” (Universidad del País Vasco, priority 2009, dated 2014) come the findings set out here.

The target in series [1] is Human HDAC1 (Homo sapiens (Human), UniProt Q13547). As to the kind of experiment: HDAC1 fluorogenic peptide deacetylation assay. Format: biochemical. Conditions: human HDAC1, 50 μM substrate, 30° C., 2 h; read-out: IC50 (nM) of enzyme activity HDAC1.
Series [2] concerns the target Human HDAC2 (Homo sapiens (Human), UniProt Q92769). As to the kind of experiment: HDAC2 fluorogenic peptide deacetylation assay. Format: biochemical. To be noted: human HDAC2, 50 μM substrate, 30° C., 2 h; read-out: IC50 (nM) of enzyme activity HDAC2.
For series [3], the target named is Human HDAC3/NcoR2 (Homo sapiens (Human), UniProt O15379). The series can be described thus: HDAC3 fluorogenic peptide deacetylation assay. Format: biochemical. Conditions: human HDAC3/NcoR2, 50 μM substrate, 30° C., 2 h; read-out: IC50 (nM) of enzyme activity HDAC3.
The target of series [4] is Human HDAC6 (Homo sapiens (Human), UniProt Q9UBN7). The series can be described thus: HDAC6 fluorogenic peptide deacetylation assay. The format is biochemical. To be noted: human HDAC6, 50 μM substrate, 30° C., 2 h; read-out: IC50 (nM) of enzyme activity HDAC6.
Series [5] addresses Human HDAC8 (Homo sapiens (Human), UniProt Q9BY41). The series can be described thus: HDAC8 fluorogenic peptide deacetylation assay. Format: biochemical. Conditions: human HDAC8, 50 μM substrate, 30° C., 2 h; read-out: IC50 (nM) of enzyme activity HDAC8.
For series [6], the system named is Nuclear Extract from HeLa Cells. The series can be described thus: HeLa Nuclear Extract HDAC assay. Conditions: 50 μM substrate, 30° C., 2 h, read-out: IC50 (nM) of enzyme activity HeLa. Format: biochemical, human.
The target of series [7] is histone deacetylase from rat liver. As to the kind of experiment: Rat liver HDAC assay. To be noted: Boc-Lys(Ac)-AMC substrate, 30° C., 2 h, read-out: IC50 (nM) of enzyme activity Rat liver. Format: biochemical.
Series [8] relates to MCF-7-218. The series can be described thus: Cancer cell growth inhibition, MCF-7-218. Format: cell-based. Conditions: Homo sapiens; MCF-7-218, Breast Cancer, 72 h treatment. As for the experimental part:
(§1) Cell culture-based assays were used to evaluate the ability of compounds of the invention to inhibit cancer cell growth inhibition.
(§2) Cells were obtained from the American Type Culture Collection (ATCC). Cells were cultured at 37° C. with 5% CO2 in the appropriate growth medium (see table below), and harvested respectively during the logarithmic growth period and counted with hemocytometer. The cell viability was over 98% by trypan blue exclusion. Cell concentrations were adjusted between 5×10^4 and 2×10^5 cells/ml with respective medium.
(§3) Stock solutions of test compounds and positive drugs Doxorubicin (Zhejiang, Haizheng, China), Paclitaxel (Beijing, Xiehe, China), Vincristin (Shenzhen Wanle, China), 5-FU (Tianjin jinyaoanjisuan, China), Irinotecan (Jiangsu Hengrui, China) and Cisplatin Nanjing zhiyao, China) were prepared in dimethyl sulphoxide (DMSO) or PBS at 20 mM.
(§4) All treatments were performed in triplicate. 10 μl drug solution was added to each well and incubated for 72 hours. At the end of the incubation, 20 μl of the freshly prepared MTS/PMS mixture solution was added to each well and incubated for 4 hours at 37° C. in a humidified, 5% CO2 atmosphere. Absorbance was read at 490 nm using SpectraMAX Plus microplate spectrophotometer. […] In order to calculate IC50, a dose-responsive curve was fitted using nonlinear regression model with a sigmoidal dose response.

For series [9], the system named is Colo205. As to the kind of experiment: Cancer cell growth inhibition, Colo205. To be noted: Homo sapiens, COLO 205; Colo205, Colorectal Cancer, 72 h treatment. Format: cell-based. As for the experimental part:
as §1, §2, §3, §4

For series [10], the system named is BT474. The series can be described thus: Cancer cell growth inhibition, BT474. Format: cell-based. To be noted: Homo sapiens, BT-474; BT474, Breast Cancer, 72 h treatment. How it is done: as §1, §2, §3, §4
Series [11] concerns MCF-7-FL. The series can be described thus: Cancer cell growth inhibition, MCF-7-FL. Format: cell-based. To be noted: Homo sapiens, Breast Cancer, 72 h treatment. How it is done: as §1, §2, §3, §4
Series [12] concerns HT-1080. As to the kind of experiment: Cancer cell growth inhibition, HT-1080. Format: cell-based. Conditions: Homo sapiens; HT-1080, Fibrosarcoma, 72 h treatment. How it is done: as §1, §2, §3, §4
Series [13] deals with SK-HEP-1. The series can be described thus: Cancer cell growth inhibition, SK-HEP-1. The format is cell-based. Conditions: Homo sapiens, SK-HEP1; SK-HEP-1, Liver Cancer, 72 h treatment. As for the experimental part: as §1, §2, §3, §4
For series [14], the system named is 143b. The series can be described thus: Cancer cell growth inhibition, 143b. Format: cell-based. To be noted: Homo sapiens, Osteosarcoma, 72 h treatment. As for the experimental part: as §1, §2, §3, §4
Series [15] deals with HCT-116. As to the kind of experiment: Cancer cell growth inhibition, HCT-116. Format: cell-based, human. Conditions: HCT-116, Colorectal Cancer, 72 h treatment. How it is done: as §1, §2, §3, §4
Series [16] has as its system MIAPACA-2. As to the kind of experiment: Cancer cell growth inhibition, MIAPACA-2. Format: cell-based, human. To be noted: MIAPACA-2, Pancreatic Cancer, 72 h treatment. How it is done:
as §1, §2, §3, §4

The test system of series [17] is HepG2. The series can be described thus: Cancer cell growth inhibition, HepG2. Conditions: HepG2, Liver Cancer, 72 h treatment. Format: cell-based, human. As for the experimental part:
as §1, §2, §3, §4

Chain of Human HDAC6 (Q9UBN7 whole entry): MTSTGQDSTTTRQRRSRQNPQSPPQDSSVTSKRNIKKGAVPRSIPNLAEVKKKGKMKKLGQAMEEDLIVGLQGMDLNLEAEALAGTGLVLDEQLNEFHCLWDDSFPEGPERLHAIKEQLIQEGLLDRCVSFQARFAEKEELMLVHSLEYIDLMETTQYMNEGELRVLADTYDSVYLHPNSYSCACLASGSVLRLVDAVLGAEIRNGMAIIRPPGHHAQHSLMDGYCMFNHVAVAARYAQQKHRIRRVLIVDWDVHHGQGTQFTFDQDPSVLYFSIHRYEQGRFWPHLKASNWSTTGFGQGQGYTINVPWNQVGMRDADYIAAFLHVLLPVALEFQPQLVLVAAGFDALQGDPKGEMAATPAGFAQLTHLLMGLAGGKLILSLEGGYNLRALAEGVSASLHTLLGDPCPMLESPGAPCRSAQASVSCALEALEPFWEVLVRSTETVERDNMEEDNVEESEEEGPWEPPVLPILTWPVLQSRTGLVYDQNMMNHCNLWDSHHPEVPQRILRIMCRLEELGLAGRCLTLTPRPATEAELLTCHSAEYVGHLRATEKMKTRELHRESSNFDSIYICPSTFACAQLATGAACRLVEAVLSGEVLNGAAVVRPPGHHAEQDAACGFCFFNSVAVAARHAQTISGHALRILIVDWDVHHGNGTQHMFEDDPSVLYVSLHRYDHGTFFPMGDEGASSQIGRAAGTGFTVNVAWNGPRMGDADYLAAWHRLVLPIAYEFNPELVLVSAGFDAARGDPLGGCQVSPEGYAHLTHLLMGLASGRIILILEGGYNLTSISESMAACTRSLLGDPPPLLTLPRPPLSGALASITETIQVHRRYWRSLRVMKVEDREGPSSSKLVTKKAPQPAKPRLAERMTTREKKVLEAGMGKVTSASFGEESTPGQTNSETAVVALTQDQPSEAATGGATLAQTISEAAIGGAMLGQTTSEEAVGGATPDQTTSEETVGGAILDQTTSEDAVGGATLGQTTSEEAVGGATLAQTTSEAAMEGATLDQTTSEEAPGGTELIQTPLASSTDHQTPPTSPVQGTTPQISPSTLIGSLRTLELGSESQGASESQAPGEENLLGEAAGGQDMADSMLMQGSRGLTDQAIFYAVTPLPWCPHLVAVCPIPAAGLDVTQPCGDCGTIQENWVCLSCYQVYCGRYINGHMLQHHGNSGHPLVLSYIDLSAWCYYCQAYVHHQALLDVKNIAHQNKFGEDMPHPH
Chain of Human HDAC8 (Q9BY41 whole entry): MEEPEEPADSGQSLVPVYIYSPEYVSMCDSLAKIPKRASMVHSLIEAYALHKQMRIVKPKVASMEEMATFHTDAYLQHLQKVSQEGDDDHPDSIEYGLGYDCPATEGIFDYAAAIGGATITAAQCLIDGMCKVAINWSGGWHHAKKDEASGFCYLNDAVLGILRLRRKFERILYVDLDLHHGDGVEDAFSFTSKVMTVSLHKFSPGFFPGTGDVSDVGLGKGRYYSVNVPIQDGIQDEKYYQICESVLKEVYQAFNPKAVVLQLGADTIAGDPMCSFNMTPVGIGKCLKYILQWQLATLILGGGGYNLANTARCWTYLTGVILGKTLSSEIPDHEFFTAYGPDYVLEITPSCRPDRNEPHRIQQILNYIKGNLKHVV
Chain of Human HDAC1 (Q13547 whole entry): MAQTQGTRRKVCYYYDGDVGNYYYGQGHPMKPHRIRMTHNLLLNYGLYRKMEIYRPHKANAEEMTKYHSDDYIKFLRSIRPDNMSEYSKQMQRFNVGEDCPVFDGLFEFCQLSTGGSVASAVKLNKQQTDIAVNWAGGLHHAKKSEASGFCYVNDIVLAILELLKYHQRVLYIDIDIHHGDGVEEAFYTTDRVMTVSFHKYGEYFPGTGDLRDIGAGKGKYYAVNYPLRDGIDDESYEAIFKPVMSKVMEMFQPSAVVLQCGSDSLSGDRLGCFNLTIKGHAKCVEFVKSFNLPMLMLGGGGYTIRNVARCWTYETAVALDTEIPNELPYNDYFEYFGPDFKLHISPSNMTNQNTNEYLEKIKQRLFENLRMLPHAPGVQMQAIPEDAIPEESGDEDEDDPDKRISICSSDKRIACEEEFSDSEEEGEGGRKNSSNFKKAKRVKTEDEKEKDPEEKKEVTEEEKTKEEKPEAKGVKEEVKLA
Chain of Human HDAC2 (Q92769 whole entry): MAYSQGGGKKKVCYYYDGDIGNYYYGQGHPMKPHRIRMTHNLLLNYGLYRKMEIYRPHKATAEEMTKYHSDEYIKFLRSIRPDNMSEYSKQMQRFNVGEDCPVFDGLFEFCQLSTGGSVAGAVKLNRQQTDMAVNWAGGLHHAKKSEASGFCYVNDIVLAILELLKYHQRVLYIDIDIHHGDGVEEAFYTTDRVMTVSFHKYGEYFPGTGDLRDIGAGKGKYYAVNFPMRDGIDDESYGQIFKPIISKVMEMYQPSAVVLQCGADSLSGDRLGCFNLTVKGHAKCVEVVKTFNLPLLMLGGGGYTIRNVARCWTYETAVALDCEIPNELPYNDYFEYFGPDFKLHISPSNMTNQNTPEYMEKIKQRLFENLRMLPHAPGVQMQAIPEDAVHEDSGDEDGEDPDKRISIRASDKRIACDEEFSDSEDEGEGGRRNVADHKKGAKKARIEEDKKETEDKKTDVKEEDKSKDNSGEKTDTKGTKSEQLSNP
Chain of Human HDAC3/NcoR2 (O15379 whole entry): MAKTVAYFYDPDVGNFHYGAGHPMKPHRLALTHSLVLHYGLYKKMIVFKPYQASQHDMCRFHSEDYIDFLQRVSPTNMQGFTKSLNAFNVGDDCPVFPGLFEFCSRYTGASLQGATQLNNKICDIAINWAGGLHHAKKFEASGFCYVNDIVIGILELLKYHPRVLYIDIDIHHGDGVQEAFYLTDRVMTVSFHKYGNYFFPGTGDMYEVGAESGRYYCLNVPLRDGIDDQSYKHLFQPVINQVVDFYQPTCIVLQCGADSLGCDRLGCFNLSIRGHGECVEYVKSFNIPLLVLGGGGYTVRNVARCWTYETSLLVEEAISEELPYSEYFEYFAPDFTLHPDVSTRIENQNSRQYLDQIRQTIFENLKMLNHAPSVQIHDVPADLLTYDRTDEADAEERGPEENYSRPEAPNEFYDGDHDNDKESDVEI
Chain of Human HDAC3/NcoR2 (Q9Y618 395-489 partner): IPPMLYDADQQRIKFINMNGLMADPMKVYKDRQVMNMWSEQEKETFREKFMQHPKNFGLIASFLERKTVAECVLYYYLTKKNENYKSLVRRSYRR

One may read the IC50 as the concentration at which inhibition is half-maximal. For orientation: melting point means the temperature of the solid-liquid transition. Consider `O=C(NO)c1ccc(CNC(=O)c2[nH]c(-c3ccoc3)cc2-c2ccc(F)cc2)cc1` [Example 12, 3-(4-fluorophenyl)-5-(3-furyl)-N-{4-[(hydroxyamino)carbonyl]benzyl}-1H-pyrrole-2-carboxamide], for which the melting point fell in the range of 162 to 164 °C. The IC50 in [1] is 384 nM. Also, in [2], the IC50 was 1150 nM. Also, in series [3], the IC50 came out at 451 nM. For the same compound, the IC50 in series [4] was 42.8 nM. The IC50 in series [5] is 124 nM. Moreover, the IC50 in [6] worked out at 46.4 nM. In [7], the IC50 worked out at 56 nM.

In the case of `COc1ccc(-c2cc(-c3ccccc3)[nH]c2C(=O)NCc2ccc(C(=O)Nc3ccccc3S)cc2)cc1` [Example 22, 3-(4-methoxyphenyl)-5-phenyl-N-(4-{[(2-sulfanylphenyl)amino]carbonyl}benzyl)-1H-pyrrole-2-carboxamide], the melting point was in the range of 134 to 135 °C. Besides, in series [1], the IC50 was more than 5000 nM. Also, in series [2], the IC50 is more than 5000 nM. In series [3], the IC50 was more than 5000 nM. For the same compound, the IC50 in series [4] is more than 5000 nM. In [5], the IC50 was more than 5000 nM. Further, the IC50 in series [6] is more than 5000 nM. Also, the half-maximal inhibitory concentration (IC50) in series [7] was more than 10000 nM.

In series [8], `CC(=O)O[C@H]1C(=O)[C@@]2(C)[C@H]([C@H](OC(=O)c3ccccc3)[C@]3(O)C[C@H](OC(=O)[C@H](O)[C@@H](NC(=O)c4ccccc4)c4ccccc4)C(C)=C1C3(C)C)[C@]1(OC(C)=O)CO[C@@H]1C[C@@H]2O` [Paclitaxel, reference compound] had an IC50 of 0.285 µM.

In turn, `O=C(NO)c1ccc(CNC(=O)c2[nH]c(-c3cccs3)cc2-c2ccc(O)cc2)cc1` [Example 13, N-{4-[(hydroxyamino)carbonyl]benzyl}-3-(4-hydroxyphenyl)-5-(2-thienyl)-1H-pyrrole-2-carboxamide] came in with a melting point of 171 to 172 °C. The IC50 in [1] came out at 865 nM. Also, in series [2], the IC50 turned out to be 1910 nM. In addition, the IC50 in series [3] was 614 nM. The IC50 in series [4] was determined as 6.6 nM. Also, the IC50 in [5] amounted to 559 nM. In addition, the IC50 in [6] stood at 42 nM.

As for `COc1ccc(-c2cc(-c3ccccc3)[nH]c2C(=O)NCc2ccc(C(=O)Nc3ccccc3N)cc2)cc1` [Example 21, N-(4-{[(2-aminophenyl)amino]carbonyl}benzyl)-3-(4-methoxyphenyl)-5-phenyl-1H-pyrrole-2-carboxamide], the melting point was 142 to 143 °C (dec.). For the same compound, the IC50 in series [1] turned out to be 390 nM. In series [2], the IC50 is 1260 nM. Besides, in series [3], the IC50 came to 3900 nM. In series [4], the IC50 was more than 5000 nM. Also, the half-inhibitory concentration (IC50) in series [5] is more than 5000 nM. In addition, in series [6], the concentration for half-maximal inhibition (IC50) was 7010 nM. The IC50 in series [7] is more than 10000 nM.

On to `CCc1c2c(nc3ccc(OC(=O)N4CCC(N5CCCCC5)CC4)cc13)-c1cc3c(c(=O)n1C2)COC(=O)[C@]3(O)CC` [Irinotecan, reference compound], for which the IC50 in [9] was determined as 16.6 µM.

With `COc1ccc(-c2cc(-c3ccccc3)[nH]c2C(=O)NCc2ccc(C(=O)Nc3ccccn3)cc2)cc1` [Example 25, 3-(4-methoxyphenyl)-5-phenyl-N-{4-[(pyridin-2-ylamino)carbonyl]benzyl}-1H-pyrrole-2-carboxamide], the melting point was 196 °C (dec.). Further, in [1], the IC50 is more than 5000 nM. In [2], the IC50 is more than 5000 nM. Besides, the IC50 in series [3] was more than 5000 nM. Also, the IC50 in [4] was more than 5000 nM. For the same compound, the IC50 in series [5] was more than 5000 nM. Further, the IC50 in series [6] is more than 5000 nM.

Take `COc1ccc(-c2cc(-c3ccccc3)[nH]c2C(=O)NCc2ccc(C(=O)Nc3ncccn3)cc2)cc1` [Example 26, 3-(4-methoxyphenyl)-5-phenyl-N-{4-[(pyrimidin-2-ylamino)carbonyl]benzyl}-1H-pyrrole-2-carboxamide]: the melting point fell in the range of 190 to 191 °C. In [1], the IC50 is more than 5000 nM. In addition, the IC50 in series [2] was more than 5000 nM. The IC50 in series [3] was more than 5000 nM. The IC50 in [4] was more than 5000 nM. Moreover, the IC50 in series [5] is more than 5000 nM. Moreover, the concentration for half-maximal inhibition (IC50) in series [6] was more than 5000 nM.

Turning to `O=C(NO)c1ccc(CNC(=O)c2[nH]c(-c3ccccc3)cc2-c2ccc(O)cc2)cc1` [Example 10, N-{4-[(hydroxyamino)carbonyl]benzyl}-3-(4-hydroxyphenyl)-5-phenyl-1H-pyrrole-2-carboxamide], the melting point lay within 139 to 141 °C. Besides, the IC50 in [1] is 473 nM. Moreover, in series [2], the IC50 came to 1390 nM. In addition, the IC50 in series [3] worked out at 512 nM. For the same compound, the IC50 in series [4] is 10.8 nM. Moreover, the IC50 in [5] was 340 nM. Moreover, in series [6], the IC50 is 34 nM. In addition, the IC50 in series [7] came to 66 nM.

As for `COc1cccc2c1C(=O)c1c(O)c3c(c(O)c1C2=O)C[C@@](O)(C(=O)CO)C[C@@H]3O[C@H]1C[C@H](N)[C@H](O)[C@H](C)O1` [Doxorubicin, reference compound], the half-inhibitory concentration (IC50) in series [10] is 4.5 µM; in series [11], 2.37 µM; in series [12], 0.0256 µM; in series [13], 0.165 µM; in series [14], 0.0861 µM.

For `O=c1[nH]cc(F)c(=O)[nH]1` [Example 5-FU, 5-FU, reference compound], the IC50 in series [15] is 1.71 µM; in series [16], 7.61 µM; in series [17], 3.28 µM.
